Assay [1] addresses cGAS (Homo sapiens, UniProt Q8N884). As to the kind of experiment: Human cGAS enzyme assay (hcGAS IC50, in vitro), cGAMP formation by RapidFire MS. The format is biochemical. On the set-up: HumancGAS (amino acid 1-522) with an N-terminal 6×-His-tag and SUMO-tag; 6xHis (N); SUMO (N); made in house; host or cells: E. coli BL21(DE3) pLysS. The conditions noted are these: Table 1; 45 bp dsDNA-activated enzyme. How it is done: 6.1 Method: Human cGAS Enzyme Assay (hcGAS IC50 (In Vitro))
Human cGAS enzyme was incubated in the presence of a 45 base pair double stranded DNA to activate the enzyme and GTP and ATP as substrates. Compound activity was determined by measuring the effect of compounds on the formation of the product of the enzyme reaction, cGAMP, which is measured by a mass spectrometry method.
HumancGAS (amino acid 1-522) with an N-terminal 6×-His-tag and SUMO-tag was expressed in E. coli BL21(DE3) pLysS (Novagen) cells for 16 h at 18° C. Cells were lysed in buffer containing 25 mM Tris (pH 8), 300 mM NaCl, 10 mM imidazole, 10% glycerol, protease inhibitor cocktail (cOmplete™, EDTA-free, Roche) and DNase (5 μg/mL). […] Purified protein was concentrated to 1.7 mg/mL and stored at −80° C.
Compounds were delivered in 10 mM DMSO solution, serially diluted and transferred to the 384 well assay plate (Greiner #781201) using an Echo acoustic dispenser. Typically, 8 concentrations were used with the highest concentration at 10 μM in the final assay volume followed by ^˜1:5 dilution steps. DMSO concentration was set to 1% in the final assay volume. The 384 well assay plate contained 22 test compounds (column 1-22), and DMSO in column 23 and 24.
After the compound transfer, 15 μL of the enzyme-DNA-working solution (12 nM cGAS, 0.32 μM 45base pair DNA in assay buffer, 10 mM Tris pH 7.5/10 mM KCl/5 mM MgCl2/1 mM DTT) were added to each well from column 1-23 via a MultiDrop Combi dispenser. In column 24, 15 μl of assay buffer without enzyme/DNA were added as a low control.
The plates were then pre-incubated for 60 min at room temperature.
Following that, 10 μL of GTP (ThermoFisher #R0461)-ATP (Promega #V915B) mix in assay buffer were added to the assay plate (columns 1-24, 30 μM final concentration each) using a Multidrop Combi.
The plates were incubated again for 90 min at room temperature.
Following the incubation, the reaction was stopped by 80 μL of 0,1% formic acid in assay buffer containing 5 nM cyclic-di-GMP (Sigma #SML1228) used as internal standard for the mass spectrometry. The total volume/well was 105 μL.
The plates were centrifuged at 4000 rpm, 4° C., for 5 min.
The RapidFire autosampler was coupled to a binary pump (Agilent 1290) and a Triple Quad 6500 (ABSciex, Toronto, Canada). […] Aspiration time: 250 ms; Load time: 3000 ms; Elute time: 3000 ms; Wash volume: 500 μL.
The MS was operated in positive ion mode with HESI ion source, with a source temperature of 550 C, curtain gas=35, gas 1=65, and gas 2=80. Unit mass resolution in SRM mode. The following transitions and MS parameters (DP: declustering potential and CE: collision energy) for cGAMP and DicGMP were determined:
Internal standard: cyclic-di-GMP at 690.1/540, DP=130, CE=30.
The formation of cGAMP was monitored and evaluated as ratio to cyclic-di-GMP.
Data Evaluation and Calculation:
For data evaluation and calculation, the measurement of the low control was set as 0% control and the measurement of the high control was set as 100% control. The IC50 values were calculated using the standard 4 parameter logistic regression formula. Calculation: [y=(a−d)/(1+(x/c)^b)+d], a=low value, d=high value; x=conc M; c=1C50 M; b=slope

Assay [2] relates to IFN induction in virus-stimulated THP1 cells. As to the kind of experiment: Human cGAS cell assay, virus-stimulated THP1-Dual cells (THP1(vir) IC50). The class given is cell-based. The conditions noted are these: THP-1, 18 h, Table 1, baculovirus-stimulated THP1-Dual cells, Lucia luciferase, 18 h, read-out: THP(vir) IC50. Put shortly:
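THP1-Dual cells with an IRF-driven Lucia luciferase reporter, activated by baculovirus-delivered dsDNA to drive cGAS, with 8-point compound series from 10 µM top (~1:5 steps) in 1% DMSO. After 18 h at 37 °C, luminescence read; IC50 via 4-parameter logistic against virus-free low control.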

Chain of cGAS (Q8N884 whole entry): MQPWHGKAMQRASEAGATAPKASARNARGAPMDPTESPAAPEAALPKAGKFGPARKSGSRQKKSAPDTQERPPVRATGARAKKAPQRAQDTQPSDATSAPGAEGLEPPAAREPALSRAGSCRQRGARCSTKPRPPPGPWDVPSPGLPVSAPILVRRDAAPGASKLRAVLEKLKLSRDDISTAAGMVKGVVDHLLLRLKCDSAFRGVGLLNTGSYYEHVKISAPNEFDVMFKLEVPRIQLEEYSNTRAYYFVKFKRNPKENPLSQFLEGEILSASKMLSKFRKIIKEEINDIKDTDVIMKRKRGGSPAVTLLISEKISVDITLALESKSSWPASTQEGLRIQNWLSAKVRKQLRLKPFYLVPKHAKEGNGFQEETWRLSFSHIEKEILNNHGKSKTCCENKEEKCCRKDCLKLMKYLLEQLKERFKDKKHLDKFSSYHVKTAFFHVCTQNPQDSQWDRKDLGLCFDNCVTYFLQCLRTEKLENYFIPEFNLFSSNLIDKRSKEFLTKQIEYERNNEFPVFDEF

With `C[C@@H]1CN2CC[C@H]1n1c(nc3ccccc31)O[C@H]1C[C@@H](C(=O)O)N(C1)c1nc(nc3c1oc1ccccc13)CCCCCOC2=O` [Example 10.01], the IC50 in assay [1] amounted to 0.054 µM; in assay [2], 0.18 µM.

Regarding `C[C@H]1CN2CC[C@@H]1n1c(nc3ccccc31)O[C@H]1C[C@@H](C(=O)O)N(C1)c1nc(nc3c1oc1ccccc13)CCCCCOC2=O` [Example 10.02], the figures for the IC50 in assay [1] and in assay [2] were 0.034 µM and 0.064 µM, respectively.

In the case of `O=C(O)[C@@H]1C[C@H]2CN1c1nc(nc3c1oc1ccccc13)OCCCCOC(=O)N1CCC(CC1)n1c(nc3ccccc31)O2` [Example 11.01], the IC50 in assay [1] was determined as 0.01 µM; in assay [2], 0.18 µM.

For `C[C@H]1CN2CC[C@@H]1n1c(nc3ccccc31)O[C@H]1C[C@@H](C(=O)O)N(C1)c1nc(nc3c1oc1ccccc13)CCCCCN(C)C2=O` [Example 13.01], the IC50 was 0.034 µM in assay [1] and 0.5 µM in assay [2].

A word on the IC50: it is the midpoint of a concentration-inhibition curve.

(Values after patent publication US20240208997A1, “CYCLIC BENZIMIDAZOLE DERIVATIVES AS CGAS INHIBITORS” (Boehringer Ingelheim International GmbH, priority 2022, published 2024).)
